Measured values reported in US6294526A, “Use of flavone derivatives for induction of β-lactam-sensitivity of MRSA” (priority 1998, dated 2001).
Converted amounts (≈) assume the structure as drawn. Like-named read-outs stand apart in the source and are kept apart here. Blank lines part the entries; values can stand above or below the molecule they belong to.

Tests used:
MSSA = test: antibacterial activity (MIC) by agar plate dilution method, MSSA strains; assay type: cell-based, Methicillin-sensitive Staphylooccus aureus
Description: (§1) The screening of the present invention may be carried out according to the agar plate dilution method designated by the Japan Society of Chemotherapy (Chemotherapy 29(1), 76-79 (1981)). Mueller-Hinton agar base semi-synthetic medium may be used for a plate culture medium for a sensitivity test together with an inoculating bacteria solution which may be prepared by culturing bacteria to be tested at 37° C. for 20 hours diluted with 8.5% by isotonic sodium chloride solution to 10^6 CFU/ml. Diluted β-lactam solutions are prepared by two times serial dilution. 1 ml of the diluted β-lactam solution and 1 ml of a predetermined concentration of a sample to be tested are added to 8 ml of the plate culture medium for a sensitivity test. To the resultant plate culture medium for sensitivity test, the bacteria are inoculated using a microplanter (SAKUMASEISAKUSYO Co.), cultured for 20 hours at 37° C. followed by assessing for a minimum inhibition concentration (MIC).
(§2) (A) Antibacterial activities of ether extract from Scutellaria barbata, SB-1 (isolated from Scutellaria barbata), apigenin (authentic sample) and luteolin (authentic sample) were shown in Table 1.
(§3) Flavones were dissolved in methanol and the others were dissolved in 0.1 N NaOH. A method for determination of antibacterial activity is, as described above, an agar plate dilution method designated by the Japan Society of Chemotherapy (Chemotherapy 29(1), 76-79 (1981)) to determine MIC value. MIC80 is a concentration at which a strain is prohibited to proliferate by 80% and MIC50 is a concentration at which a strain is prohibited to proliferate by 50%.

MRSA [1] = test: antibacterial activity (MIC) by agar plate dilution method, MRSA strains; assay type: cell-based, methicillin-resistant Staphylococcus aureus
Description: as §1, §2, §3

MRSA and MSSA = test: antibacterial activity (MIC) by agar plate dilution method, MRSA and MSSA strains together; assay type: cell-based, Staphylococcus aureus; details: MRSA and MSSA, Table 2
Description: as §1, with “(MIC). […]” for “(MIC).”
Antibacterial activity is determined for flavones including flavone, flavonol, flavanone, isoflavone, catechin and calchone, as follows:
as §3

MRSA [2] = test: antibacterial activity of antibiotics alone and in the presence of apigenin (4 μg/ml), MRSA; assay type: cell-based, methicillin-resistant Staphylococcus aureus; details: apigenin 4 μg/ml or less than its MIC
Description: as §1
(D) Then use of 4 μg/ml of apigenin and other antibiotics at the same time was studied. The antibiotics are penicillin , ampicillin, cephalothin, cefoxitin, cefuroxime, cefotaxime, vancomycin, streptomycin, chloramphenicol, kanamycin, erythromycin, nalixic acid and tetracycline.

MIC (MSSA; MSSA strain No. 21): > 250 µg/mL
MIC (MSSA; MSSA strain No. 22): > 250 µg/mL
MIC (MSSA; MSSA strain No. 24): 3.9 µg/mL (≈ 14.4 µM)
MIC (MSSA; MSSA strain No. 24, listed as SB-1): 31.3 µg/mL (≈ 116 µM)
MIC (MSSA; MSSA strain No. 25): 3.9 µg/mL (≈ 14.4 µM)
MIC (MSSA; MSSA strain No. 27): 15.6 µg/mL (≈ 57.7 µM)
MIC (MSSA; MSSA strain No. 27, listed as SB-1): 31.3 µg/mL (≈ 116 µM)
MIC50 (MSSA; Staphylococcus aureus, 20 h, MSSA (7 strains), read-out: MIC50): 15.6 µg/mL (≈ 57.7 µM)
MIC (MSSA; Staphylococcus aureus, MSSA, 20 h, MSSA strain No. 21, read-out: MIC): 250 µg/mL (≈ 925 µM)
MIC (MSSA; Staphylococcus aureus, MSSA, 20 h, MSSA strain No. 22, read-out: MIC): 250 µg/mL (≈ 925 µM)
MIC (MSSA; Staphylococcus aureus, MSSA, 20 h, MSSA strain No. 23, read-out: MIC): 15.6 µg/mL (≈ 57.7 µM)
MIC (MSSA; Staphylococcus aureus, MSSA, 20 h, MSSA strain No. 25, read-out: MIC): 7.8 µg/mL (≈ 28.9 µM)
MIC (MSSA; Staphylococcus aureus, MSSA, 20 h, MSSA strain No. 26, read-out: MIC): 15.6 µg/mL (≈ 57.7 µM)
MIC (MRSA [1]; MRSA strain No. 1): 7.8 µg/mL (≈ 28.9 µM)
MIC (MRSA [1]; MRSA strain No. 2): 3.9 µg/mL (≈ 14.4 µM)
MIC (MRSA [1]; MRSA strain No. 3): 7.8 µg/mL (≈ 28.9 µM)
MIC (MRSA [1]; MRSA strain No. 4): 7.8 µg/mL (≈ 28.9 µM)
MIC (MRSA [1]; MRSA strain No. 5): 3.9 µg/mL (≈ 14.4 µM)
MIC (MRSA [1]; MRSA strain No. 6): 3.9 µg/mL (≈ 14.4 µM)
MIC (MRSA [1]; MRSA strain No. 8): 3.9 µg/mL (≈ 14.4 µM)
MIC (MRSA [1]; MRSA strain No. 9): 3.9 µg/mL (≈ 14.4 µM)
MIC (MRSA [1]; MRSA strain No. 9, listed as SB-1): 15.6 µg/mL (≈ 57.7 µM)
MIC (MRSA [1]; MRSA strain No. 13): 7.8 µg/mL (≈ 28.9 µM)
MIC (MRSA [1]; MRSA strain No. 13, listed as SB-1): 31.3 µg/mL (≈ 116 µM)
MIC (MRSA [1]; MRSA strain No. 14): 7.8 µg/mL (≈ 28.9 µM)
MIC (MRSA [1]; MRSA strain No. 14, listed as SB-1): 31.3 µg/mL (≈ 116 µM)
MIC (MRSA [1]; MRSA strain No. 15): 7.8 µg/mL (≈ 28.9 µM)
MIC (MRSA [1]; MRSA strain No. 16): 7.8 µg/mL (≈ 28.9 µM)
MIC (MRSA [1]; MRSA strain No. 17): 3.9 µg/mL (≈ 14.4 µM)
MIC50 (MRSA [1]; Staphylococcus aureus, 20 h, MRSA (20 strains), read-out: MIC50): 7.8 µg/mL (≈ 28.9 µM)
MIC (MRSA [1]; Staphylococcus aureus, MRSA, 20 h, MRSA strain No. 1, read-out: MIC): 15.6 µg/mL (≈ 57.7 µM)
MIC (MRSA [1]; Staphylococcus aureus, MRSA, 20 h, MRSA strain No. 2, read-out: MIC): 7.8 µg/mL (≈ 28.9 µM)
MIC (MRSA [1]; Staphylococcus aureus, MRSA, 20 h, MRSA strain No. 3, read-out: MIC): 15.6 µg/mL (≈ 57.7 µM)
MIC (MRSA [1]; Staphylococcus aureus, MRSA, 20 h, MRSA strain No. 4, read-out: MIC): 15.6 µg/mL (≈ 57.7 µM)
MIC (MRSA [1]; Staphylococcus aureus, MRSA, 20 h, MRSA strain No. 5, read-out: MIC): 7.8 µg/mL (≈ 28.9 µM)
MIC (MRSA [1]; Staphylococcus aureus, MRSA, 20 h, MRSA strain No. 6, read-out: MIC): 7.8 µg/mL (≈ 28.9 µM)
MIC (MRSA [1]; Staphylococcus aureus, MRSA, 20 h, MRSA strain No. 7, read-out: MIC): 3.9 µg/mL (≈ 14.4 µM)
MIC (MRSA [1]; Staphylococcus aureus, MRSA, 20 h, MRSA strain No. 8, read-out: MIC): 7.8 µg/mL (≈ 28.9 µM)
MIC (MRSA [1]; Staphylococcus aureus, MRSA, 20 h, MRSA strain No. 10, read-out: MIC): 15.6 µg/mL (≈ 57.7 µM)
MIC (MRSA [1]; Staphylococcus aureus, MRSA, 20 h, MRSA strain No. 11, read-out: MIC): > 250 µg/mL
MIC (MRSA [1]; Staphylococcus aureus, MRSA, 20 h, MRSA strain No. 12, read-out: MIC): > 250 µg/mL
MIC (MRSA [1]; Staphylococcus aureus, MRSA, 20 h, MRSA strain No. 15, read-out: MIC): 15.6 µg/mL (≈ 57.7 µM)
MIC (MRSA [1]; Staphylococcus aureus, MRSA, 20 h, MRSA strain No. 16, read-out: MIC): 15.6 µg/mL (≈ 57.7 µM)
MIC (MRSA [1]; Staphylococcus aureus, MRSA, 20 h, MRSA strain No. 17, read-out: MIC): 7.8 µg/mL (≈ 28.9 µM)
MIC (MRSA [1]; Staphylococcus aureus, MRSA, 20 h, MRSA strain No. 18, read-out: MIC): > 250 µg/mL
MIC (MRSA [1]; Staphylococcus aureus, MRSA, 20 h, MRSA strain No. 19, read-out: MIC): > 250 µg/mL
MIC (MRSA [1]; Staphylococcus aureus, MRSA, 20 h, MRSA strain No. 20, read-out: MIC): 31.3 µg/mL (≈ 116 µM)
Structure (SMILES): O=c1cc(-c2ccc(O)cc2)oc2cc(O)cc(O)c12 [Apigenin, apigenin]
antibacterial activity (in words) (MRSA and MSSA): showed antibacterial activity
inhibition of β-lactam resistant MRSA / improvement of antibacterial effect with apigenin (in words) (MRSA [2]): could improve antibacterial effect of methicillin on MRSA

Structure (SMILES): O=c1cc(-c2ccc(O)c(O)c2)oc2cc(O)cc(O)c12 [Luteolin, luteolin]
MIC50 (MSSA; Staphylococcus aureus, MSSA, 20 h): 125 µg/mL (≈ 437 µM)
MIC (MSSA; Staphylococcus aureus, MSSA, 20 h, MSSA (7 strains), range over strains): 62.5 to 125 µg/mL (≈ 218 to 437 µM)
MIC (MSSA; Staphylococcus aureus, MSSA, 20 h, MSSA strain No. 21): 125 µg/mL (≈ 437 µM)
MIC (MSSA; Staphylococcus aureus, MSSA, 20 h, MSSA strain No. 22): 125 µg/mL (≈ 437 µM)
MIC (MSSA; Staphylococcus aureus, MSSA, 20 h, MSSA strain No. 23): 62.5 µg/mL (≈ 218 µM)
MIC (MSSA; Staphylococcus aureus, MSSA, 20 h, MSSA strain No. 24): 62.5 µg/mL (≈ 218 µM)
MIC (MSSA; Staphylococcus aureus, MSSA, 20 h, MSSA strain No. 25): 125 µg/mL (≈ 437 µM)
MIC (MSSA; Staphylococcus aureus, MSSA, 20 h, MSSA strain No. 26): 125 µg/mL (≈ 437 µM)
MIC (MSSA; Staphylococcus aureus, MSSA, 20 h, MSSA strain No. 27): 62.5 µg/mL (≈ 218 µM)
MIC50 (MRSA [1]; Staphylococcus aureus, MRSA, 20 h): 125 µg/mL (≈ 437 µM)
MIC (MRSA [1]; Staphylococcus aureus, MRSA, 20 h, MRSA (20 strains), range over strains): 62.5 to 125 µg/mL (≈ 218 to 437 µM)
MIC (MRSA [1]; Staphylococcus aureus, MRSA, 20 h, MRSA strain No. 1): 125 µg/mL (≈ 437 µM)
MIC (MRSA [1]; Staphylococcus aureus, MRSA, 20 h, MRSA strain No. 2): 125 µg/mL (≈ 437 µM)
MIC (MRSA [1]; Staphylococcus aureus, MRSA, 20 h, MRSA strain No. 3): 125 µg/mL (≈ 437 µM)
MIC (MRSA [1]; Staphylococcus aureus, MRSA, 20 h, MRSA strain No. 4): 125 µg/mL (≈ 437 µM)
MIC (MRSA [1]; Staphylococcus aureus, MRSA, 20 h, MRSA strain No. 5): 62.5 µg/mL (≈ 218 µM)
MIC (MRSA [1]; Staphylococcus aureus, MRSA, 20 h, MRSA strain No. 6): 62.5 µg/mL (≈ 218 µM)
MIC (MRSA [1]; Staphylococcus aureus, MRSA, 20 h, MRSA strain No. 7): 62.5 µg/mL (≈ 218 µM)
MIC (MRSA [1]; Staphylococcus aureus, MRSA, 20 h, MRSA strain No. 8): 62.5 µg/mL (≈ 218 µM)
MIC (MRSA [1]; Staphylococcus aureus, MRSA, 20 h, MRSA strain No. 9): 62.5 µg/mL (≈ 218 µM)
MIC (MRSA [1]; Staphylococcus aureus, MRSA, 20 h, MRSA strain No. 10): 62.5 µg/mL (≈ 218 µM)
MIC (MRSA [1]; Staphylococcus aureus, MRSA, 20 h, MRSA strain No. 11): 125 µg/mL (≈ 437 µM)
MIC (MRSA [1]; Staphylococcus aureus, MRSA, 20 h, MRSA strain No. 12): 125 µg/mL (≈ 437 µM)
MIC (MRSA [1]; Staphylococcus aureus, MRSA, 20 h, MRSA strain No. 13): 62.5 µg/mL (≈ 218 µM)
MIC (MRSA [1]; Staphylococcus aureus, MRSA, 20 h, MRSA strain No. 14): 125 µg/mL (≈ 437 µM)
MIC (MRSA [1]; Staphylococcus aureus, MRSA, 20 h, MRSA strain No. 15): 125 µg/mL (≈ 437 µM)
MIC (MRSA [1]; Staphylococcus aureus, MRSA, 20 h, MRSA strain No. 16): 125 µg/mL (≈ 437 µM)
MIC (MRSA [1]; Staphylococcus aureus, MRSA, 20 h, MRSA strain No. 17): 125 µg/mL (≈ 437 µM)
MIC (MRSA [1]; Staphylococcus aureus, MRSA, 20 h, MRSA strain No. 18): 125 µg/mL (≈ 437 µM)
MIC (MRSA [1]; Staphylococcus aureus, MRSA, 20 h, MRSA strain No. 19): 125 µg/mL (≈ 437 µM)
MIC (MRSA [1]; Staphylococcus aureus, MRSA, 20 h, MRSA strain No. 20): 62.5 µg/mL (≈ 218 µM)
antibacterial activity (in words) (MRSA and MSSA): showed antibacterial activity
